The values that follow come from publication PMC5323132, “Targeting prohibitins induces apoptosis in acute myeloid leukemia cells” (Oncotarget, 2016).

As a reminder, the viability is the share of living cells, or the viability signal relative to a control.

Data set [1] has as its system primary AML cells. Briefly: Methylcellulose colony-forming unit (CFU) assay. It counts as cell-based, human. Particulars: pretreated 24 hours, n = 5. As for the experimental part: (§1) The analysis of the clonogenic capacity after exposition to the fluorizoline was performed using a methylcellulose-based medium with recombinant cytokines and erythropoietin (EPO) for human hematopoietic progenitor cells (MethoCult^TM H4034 Optimum, StemCell Technologies). U-937 cells and primary AML cells were pretreated for 24 hours with the indicated factors, as previously mentioned. Then, cells (1 × 10^3 U-937 cells or 50 × 10^3 primary AML cells) were diluted in 100 μL serum-free IMDM with 25 mM HEPES, homogeneously mixed with 1 mL MethoCult^TM medium, seeded in duplicate cultures and maintained at 37°C with 5% CO2 in air in a humidified atmosphere. Colonies (CFU) were screened based on morphology and cellularity at day 10 (U-937 cells) or day 14 (primary AML cells) using an inverted microscope. A colony was defined as a cluster of > 40 cells.

Data set [2] deals with U-937 cells. Briefly: Methylcellulose colony-forming unit (CFU) assay. In kind it is cell-based, human. Particulars: pretreated 24 hours, n = 4. As for the experimental part:
as §1

Data set [3] concerns CD34- population of AML specimens. Kind of data set: Ex vivo viability (annexin V) on CD34- population of AML specimens. In kind it is cell-based, human. As to conditions: six AML specimens, 48 hours. As for the experimental part: (§2) Cell viability was assessed by phosphatidylserine exposure and measured as the percentage of annexin V-negative cell population. After incubation of 1.25 × 10^5 cells with the indicated factors and times, cells were then washed in annexin-binding buffer (ABB) and incubated in 100 μL ABB with 0.5 μL annexin V-APC for 10 min in the dark and then diluted with ABB to a final volume of 150 μL. Occasionally, 3.75 μL PI were added after annexin V staining and immediately before acquisition to measure the percentage of annexin V^−/PI^− live cells. In AML samples with infiltration lower than 80% blasts, double staining with anti-CD33 or anti-CD34, and annexin V was performed. In brief, cells were washed in ABB and incubated in 50 μL ABB containing 0.5 μL anti-CD33 or anti-CD34 for 10 min in the dark and thereafter stained with annexin V, as previously mentioned. Cells were acquired using the FACSCanto^TM II flow cytometer (Becton Dickinson, Franklin Lakes, NJ, USA) and data of bulk leukemic/normal and CD33^+- or CD34^+-gated leukemic/normal progenitor cells were analyzed using the FACSDiva^TM software (Becton Dickinson). Half-maximal lethal dose (LD50) was defined as the concentration of drug required to reduce the cell viability by 50%. Patient samples were considered as “sensitive” to fluorizoline when cell viability was lower than 80% after incubation with 20 μM during 48 hours.

The test system of data set [4] is NOXA mRNA in U-937 cells. Briefly: RT-MLPA apoptosis-related gene expression. It counts as cell-based. As to conditions: Homo sapiens. As for the experimental part:
RNA was isolated from cultured 3–5 × 10^6 cells by the RNeasy Micro kit (Qiagen GmbH, Hilden, Germany) according to the manufacturer's protocol. RNA was analyzed by RT-MLPA using SALSA MLPA KIT R011-C1 Apoptosis mRNA from MRC-Holland (Amsterdam, The Netherlands) for the simultaneous detection of 40 messenger RNA molecules, including apoptosis-related genes. In brief, RNA samples (200 ng total RNA) were first reverse transcribed using a gene-specific primer mix. The resulting cDNA was annealed overnight at 60°C to the RT-MLPA probe mix. Annealed oligonucleotides were ligated by adding Ligase-65 (MRC-Holland) and incubated at 54°C for 15 min. Ligation products were amplified by PCR (35 cycles, 30 s at 95°C; 30 s at 60°C, and 1 min at 72°C) with one unlabeled and one FAM-labeled primer. The final PCR fragments amplified were separated by capillary electrophoresis on a 96-capillary ABI-Prism® 3730XL Genetic Analyzer (Applied Biosystems/Hitachi, Carlsbad, CA, USA). Peak area and height were measured using GeneMapper^TM v3.0 analysis software (Applied Biosystems). Ratios of individual peaks relative to the sum of all peaks were calculated, resulting in the relative abundance of mRNAs of the genes of interest.

Data set [5] deals with CD11b in U-937 cells. Kind of data set: Differentiation assay, CD11b surface expression by flow cytometry. In kind it is cell-based. Particulars: Homo sapiens, 48 hours, read-out: CD11b surface marker expression, fold induction compared to DMSO-treated cells. As for the experimental part:
(§3) Myeloid maturation induction was assessed by cell surface marker expression analysis. U-937 and primary AML cells were treated as indicated for cell viability assays. After 24 and 48 hours of incubation cells were collected and stained in 50 μL PBS buffer containing 2 mM EDTA and 0.5% bovine serum albumin (BSA) with 0.5 μL anti-human CD11b for 10 min in the dark and then diluted with buffer to a final volume of 150 μL. In parallel, cell viability was analyzed by annexin V staining in separated tubes. Surface expression of the antigen was analyzed by flow cytometry. In these experiments vehicle-treated cells were also included in order to discard DMSO-induced myeloid differentiation.

In data set [6] the test system is CD11b in de novo AML primary samples. Described as above. In kind it is cell-based. As to conditions: Homo sapiens, 48 hours, read-out: CD11b surface marker expression, fold induction compared to DMSO-treated cells. As for the experimental part:
as §3

The test system of data set [7] is U-937 cells. Briefly: Viability by phosphatidylserine exposure (annexin V) flow cytometry. It counts as cell-based, human. As to conditions: for viability at 5 µM: Homo sapiens, read-out: Viability (%) (annexin V negative cells). As for the experimental part: (§4) Cell viability was assessed by phosphatidylserine exposure and measured as the percentage of annexin V-negative cell population. […] Occasionally, 3.75 μL PI were added after annexin V staining and immediately before acquisition to measure the percentage of annexin V^−/PI^− live cells. In AML samples with infiltration lower than 80% blasts, double staining with anti-CD33 or anti-CD34, and annexin V was performed. In brief, cells were washed in ABB and incubated in 50 μL ABB containing 0.5 μL anti-CD33 or anti-CD34 for 10 min in the dark and thereafter stained with annexin V, as previously mentioned. Cells were acquired using the FACSCanto^TM II flow cytometer (Becton Dickinson, Franklin Lakes, NJ, USA) and data of bulk leukemic/normal and CD33^+- or CD34^+-gated leukemic/normal progenitor cells were analyzed using the FACSDiva^TM software (Becton Dickinson). […] Patient samples were considered as “sensitive” to fluorizoline when cell viability was lower than 80% after incubation with 20 μM during 48 hours.

Data set [8] relates to primary AML cells (BMMNC or PBMNC from AML patients). Briefly: Ex vivo viability (annexin V) of primary AML cells. In kind it is cell-based, human. As for the experimental part:
PBMNC and BMMNC were isolated by centrifugation on a Biocoll (Biochrom AG, Berlin, Germany) gradient and cryopreserved in liquid nitrogen in the presence of 10% dimethyl sulfoxide (DMSO) (Sigma-Aldrich Inc, St Louis, MO, USA).
as §4

Data set [9] concerns HL-60 cells. Briefly: MTT cell viability assay. Particulars: Homo sapiens, read-out: IC50 (half-maximal inhibitory concentration), MTT. In kind it is cell-based. As for the experimental part: (§5) HL-60 and U-937 cells (1.25 × 10^5 cells/well) were incubated in the absence or in the presence of the indicated factors, in a final volume of 250 μL. After 24 or 48 hours, 25 μL MTT reagent (prepared at 5 mg/mL in phosphate-buffered saline (PBS)) was added to each well for an additional 3 hours. The blue MTT formazan precipitate was dissolved in 250 μL isopropanol:1 M HCl (24:1). Then, 100 μL of this cell lysate were plated in a 96-well plate in triplicate and the absorbance values at 570 nm were measured on a multiwell plate reader. The half-maximal inhibitory concentration (IC50) was defined as the concentration of drug required to reduce the MTT metabolization ability by 50%.
On the technique in general: Tetrazolium dyes change colour on reduction, which living cells bring about.

For data set [10], the system named is U-937 cells. Kind of data set: MTT cell viability assay. It counts as cell-based. As to conditions: Homo sapiens, read-out: IC50 (half-maximal inhibitory concentration), MTT. As for the experimental part:
as §5

For data set [11], the system named is HL-60 cells. Briefly: Viability by phosphatidylserine exposure (annexin V) flow cytometry. As to conditions: 48 hours. In kind it is cell-based, human. As for the experimental part:
as §2
(In general: Flow cytometry measures light scatter and fluorescence of single cells or particles in a stream.)

Data set [12] deals with CD34+ population of AML specimens. Kind of data set: Ex vivo viability (annexin V) on CD34+ population of AML specimens. Particulars: six AML specimens, 48 hours. It counts as cell-based, human. As for the experimental part:
as §2

Data set [13] deals with normal BMMNC and normal hematopoietic stem cells (PBSC). Briefly: Ex vivo viability (annexin V) of normal hematologic cells. In kind it is cell-based, human. Particulars: for median LD50: normal cells. As for the experimental part: (§6) Normal BMMNC was obtained from apheresis-collected granulocyte colony-stimulating factor (G-CSF)-mobilized progenitor-cell from PB of 3 healthy donors were used as a source of normal CD34^+ cells.
as §4

Assay in data set [14]: as above
In kind it is cell-based, human. Particulars: human, normal BMMNC and normal hematopoietic stem cells (PBSC); normal cells, 20 μM, 24 hours; read-out: viable cells (percentage of viability of untreated cells). As for the experimental part:
as §6, §4

Where [15] appears, read: Figure 5C, 24 h, fluorizoline 5 μM, Q-VD-OPh 20 μM pre-incubated 30 min.

Molecules are shown by their SMILES. Values joined by “and” are separate entries in the source; they are usually repeats but may differ in a detail not shown here. Equal entries are not always repeated. Where two headings read alike, the source gives them in different places.

On to `FC1(F)N=C(c2ccc(Cl)cc2)SC1(F)c1ccc(Cl)cc1` (centres unmarked) [fluorizoline], for which the “mean CFU respect to untreated cells” value in data set [1] (2.5 μM) is given as 39.9 ± 5%; in data set [1] (10 μM) it was 5.3 ± 1.5%; in data set [2] (5 μM), 49.9 ± 5%; in data set [2] (10 μM), 1.9 ± 1%. Besides, the figures for the LD50 result in data set [3] and in [12] were “higher than 20 μM” and 4.5 ± 2.3 µM, respectively. Also, the fold induction at 10 µM in data set [4] (4 hours) is 3.5; in data set [4] (8 hours), 6.6; in data set [4] (24 hours), 3.1. Moreover, in data set [5], the fold induction at 40 µM was found to be 12.1. The fold induction at 20 µM in [6] stood at 1.5. In addition, the “annexin V-/PI+ population” value in data set [7] (10 µM fluorizoline, 24 h, annexin V/PI double staining) was “less than 6%”. The “mean LD50, annexin V” value in [7] (24 hours) was “above 40 μM”; in data set [7] (48 hours), 14 µM. Moreover, the viability at 5 µM was determined as 93% in data set [7] (Figure 5B, 5 μM, 4 h); 92% in data set [7] (Figure 5B, 5 μM, 8 h); 64% in data set [7] (Figure 5B, 5 μM, 24 h); 63% in [7] (setting [15]). The “median LD50” value in [8] (24 hours, sensitive patient samples (n = 15)) was 8.0 ± 1.7 µM; in [8] (samples at relapse (n = 6), 24 hours), 10.3 ± 4.0 µM; in data set [8] (samples at relapse (n = 6), 48 hours), 5.4 ± 1.6 µM; in data set [13] (24 hours) it was “above 20 μM”; in data set [13] (48 hours), “above 20 μM”. Besides, the “mean LD50” value in data set [8] (48 hours, n = 21) was 5.3 ± 0.8 µM. For the same compound, the viability at 10 µM in data set [8] (Homo sapiens, 2 h, Figure 6B, patient #14, 10 μM, 2 h, read-out: Viability (%) (annexin V negative cells)) is 95%; in data set [8] (Homo sapiens, 4 h, Figure 6B, patient #14, 10 μM, 4 h, read-out: Viability (%) (annexin V negative cells)), 92%; in data set [8] (Homo sapiens, 8 h, Figure 6B, patient #14, 10 μM, 8 h, read-out: Viability (%) (annexin V negative cells)) it was 87%; in [8] (Homo sapiens, 8 h, Figure 6C, patient #13, 10 μM, 8 h, read-out: Viability (%) (annexin V negative cells)) it was 35%; in [8] (Homo sapiens, 8 h, Figure 6C, patient #16, 10 μM, 8 h, read-out: Viability (%) (annexin V negative cells)), 50%; in data set [8] (Homo sapiens, 8 h, Figure 6C, patient #18, 10 μM, 8 h, read-out: Viability (%) (annexin V negative cells)), 80%. Moreover, the viability at 10 µM in [8] (Homo sapiens, 8 h, Figure 6C, patient #20, 10 μM, 8 h, read-out: Viability (%) (annexin V negative cells)) stood at 43%; in data set [8] (Homo sapiens, 12 h, Figure 6B, patient #14, 10 μM, 12 h, read-out: Viability (%) (annexin V negative cells)), 81%; in [8] (Homo sapiens, 24 h, 10 μM, 24 hours, n = 20 AML samples, untreated 75.8% ± 2.9%, read-out: cell viability (annexin V negative cells)) it was 35.5%; in [8] (Homo sapiens, Figure 6D, patient #20, 24 h, fluorizoline 10 μM, Q-VD-OPh 20 μM pre-incubated 30 min, read-out: Viability (%) (annexin V negative cells)), 25%. Moreover, the viability at 2.5 µM in [8] (Homo sapiens, 8 h, Figure 6C, patient #21, 2.5 μM, 8 h, read-out: Viability (%) (annexin V negative cells)) turned out to be 37%. Also, the IC50 in data set [9] (HL-60, 24 h) came out at 8 µM; in [9] (HL-60, 48 h), 6 µM; in data set [10] (U-937, 24 h), 7 µM; in data set [10] (U-937, 48 h), 5 µM. For the same compound, the “LD50 (half-maximal lethal dose), annexin V” value in data set [11] was determined as 40 µM. For the same compound, the “LD50(μM) 24 h” value in [13] (Donor No. 1-9, 24 h) was > 20 µM and 16 µM. Moreover, in data set [13] (Donor No. 1-9, 48 h), the “LD50(μM) 48 h” value was > 20 µM and 8 µM and 13 µM. Besides, the viability at 24 h, 20 µM in [14] stood at 68.6%.

`CC(C)[C@H](NC(=O)c1ccc2ccccc2n1)C(=O)N[C@@H](CC(=O)O)C(=O)COc1c(F)cccc1F` [Q-VD-OPh, reference compound]: the “Viability (%) (annexin V negative cells)” value in data set [7] (setting [15]) is reported as 95%.
